According to patent publication US11304946B2, “2-hetarylpyrimidine-4-carboxamides as aryl hydrocarbon receptor antagonists” (Bayer Aktiengesellschaft, priority 2017, dated 2022):
pIC50: −log10 of the molar value.

Experiments:
[1] = target: T1, Mouse AhR (Mus musculus, UniProt P30561); test: Transactivation assay in mouse cell line (in vitro assay 2: antagonism); type: cell-based; conditions: Hepa 1c1c7 cells, AHR inducible (DRE) firefly luciferase reporter, 200 μM kynurenic acid, 20 hours
T1 sequence (P30561 1-848): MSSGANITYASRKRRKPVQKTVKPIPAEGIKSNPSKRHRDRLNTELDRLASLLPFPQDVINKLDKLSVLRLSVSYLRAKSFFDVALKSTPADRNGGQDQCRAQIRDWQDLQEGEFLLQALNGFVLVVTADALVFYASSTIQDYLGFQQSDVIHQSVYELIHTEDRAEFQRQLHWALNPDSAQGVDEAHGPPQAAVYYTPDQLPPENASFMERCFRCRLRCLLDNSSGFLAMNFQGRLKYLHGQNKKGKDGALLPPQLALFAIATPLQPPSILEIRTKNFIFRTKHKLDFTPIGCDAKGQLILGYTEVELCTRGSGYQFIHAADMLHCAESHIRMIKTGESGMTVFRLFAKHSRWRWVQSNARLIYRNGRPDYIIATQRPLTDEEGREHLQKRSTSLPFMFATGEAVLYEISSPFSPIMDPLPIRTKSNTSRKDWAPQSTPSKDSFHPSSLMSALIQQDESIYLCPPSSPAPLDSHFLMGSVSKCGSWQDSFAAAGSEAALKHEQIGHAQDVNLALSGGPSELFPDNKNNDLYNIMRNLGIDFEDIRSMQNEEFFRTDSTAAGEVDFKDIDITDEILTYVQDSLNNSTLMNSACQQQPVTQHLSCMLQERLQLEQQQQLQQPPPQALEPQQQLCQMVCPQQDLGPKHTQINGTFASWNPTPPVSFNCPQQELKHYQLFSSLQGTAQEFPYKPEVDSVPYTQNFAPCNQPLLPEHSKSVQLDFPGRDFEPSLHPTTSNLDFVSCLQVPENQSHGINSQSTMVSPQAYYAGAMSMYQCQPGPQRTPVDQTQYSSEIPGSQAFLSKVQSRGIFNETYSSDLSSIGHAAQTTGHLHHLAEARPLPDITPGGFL
Procedure, shortened: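 Hepa 1c1c7 cells express AhR endogenously and stably carry a DRE-driven firefly luciferase reporter. They were prestimulated with the agonist kynurenic acid before compound testing for antagonism. Luciferase read by SteadyGlo luminescence.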

[2] = target: T2, Human AhR (Homo sapiens, UniProt P35869); test: Transactivation assay in human cell line (in vitro assay 1: antagonism); type: cell-based; conditions: U87 glioblastoma cells, AHR inducible (DRE) firefly luciferase reporter, 150 μM kynurenic acid, 20 hours
T2 construct: host or cells: U87 glioblastoma cells, stably transfected with DRE-driven firefly luciferase and constitutive renilla reporter constructs
T2 sequence (P35869 11-848): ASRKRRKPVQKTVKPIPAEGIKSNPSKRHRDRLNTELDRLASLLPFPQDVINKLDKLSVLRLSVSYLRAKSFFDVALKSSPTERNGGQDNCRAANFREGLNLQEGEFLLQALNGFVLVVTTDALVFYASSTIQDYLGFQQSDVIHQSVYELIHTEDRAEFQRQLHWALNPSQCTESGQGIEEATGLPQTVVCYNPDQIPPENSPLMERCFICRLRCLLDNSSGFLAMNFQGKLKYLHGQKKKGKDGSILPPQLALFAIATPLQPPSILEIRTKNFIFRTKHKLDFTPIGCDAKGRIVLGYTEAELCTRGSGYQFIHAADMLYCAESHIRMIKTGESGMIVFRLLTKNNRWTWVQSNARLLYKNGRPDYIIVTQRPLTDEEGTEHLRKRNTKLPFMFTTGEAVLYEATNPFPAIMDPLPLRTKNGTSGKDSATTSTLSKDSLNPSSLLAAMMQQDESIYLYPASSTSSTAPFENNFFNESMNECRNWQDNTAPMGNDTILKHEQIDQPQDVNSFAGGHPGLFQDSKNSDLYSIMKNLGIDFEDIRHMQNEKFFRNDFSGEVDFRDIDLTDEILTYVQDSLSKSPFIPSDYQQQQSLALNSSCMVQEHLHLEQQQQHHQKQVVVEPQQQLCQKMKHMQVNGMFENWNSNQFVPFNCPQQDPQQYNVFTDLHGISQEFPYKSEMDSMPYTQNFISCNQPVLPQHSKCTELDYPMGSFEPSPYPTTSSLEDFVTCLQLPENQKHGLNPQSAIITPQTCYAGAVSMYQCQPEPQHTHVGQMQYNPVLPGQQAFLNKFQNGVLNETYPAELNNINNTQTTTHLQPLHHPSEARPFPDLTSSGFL
Procedure, shortened: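 U87 glioblastoma cells with endogenous AHR, stably carrying DRE-driven firefly luciferase and constitutive Renilla reporters, prestimulated with kynurenic acid before compound. Dual luciferase read-out; Renilla signal used to flag toxicity.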

Row | pIC50 [1] | pIC50 [2] | Structure (SMILES)
1 | 8.09 | 7.69 | Cn1cc(-c2nc(C(=O)N[C@H](CO)C(C)(C)C)cc(-c3ccc(OC(F)(F)F)cc3)n2)cn1 [Example 88, N-[(2S)-1-hydroxy-3,3-dimethylbutan-2-yl]-2-(1-methyl-1H-pyrazol-4-yl)-6-[4-(trifluoromethoxy)phenyl]pyrimidine-4-carboxamide]
2 | 8.36 | 8.10 | Cn1cc(-c2nc(C(=O)NC(CO)(CO)C(F)(F)F)cc(-c3ccc(OC(F)(F)F)cc3)n2)cn1 [Example 89, 2-(1-methyl-1H-pyrazol-4-yl)-N-[1,1,1-trifluoro-3-hydroxy-2-(hydroxymethyl)propan-2-yl]-6-[4-(trifluoromethoxy)phenyl]pyrimidine-4-carboxamide]
3 | 7.78 | 7.47 | Cn1cc(-c2nc(C(=O)NC(CO)Cc3cccnc3)cc(-c3ccc(OC(F)(F)F)cc3)n2)cn1 (stereo not drawn) [Example 93, N-[1-hydroxy-3-(pyridin-3-yl)propan-2-yl]-2-(1-methyl-1H-pyrazol-4-yl)-6-[4-(trifluoromethoxy)phenyl]pyrimidine-4-carboxamide]
4 | 7.61 | 8.26 | Cn1cc(-c2nc(C(=O)NC(CO)C3CCC3)cc(-c3ccc(OC(F)(F)F)cc3)n2)cn1 (stereo not drawn) [Example 94, N-(1-cyclobutyl-2-hydroxyethyl)-2-(1-methyl-1H-pyrazol-4-yl)-6-[4-(trifluoromethoxy)phenyl]pyrimidine-4-carboxamide]
5 | 8.40 | 8.46 | Cn1cc(-c2nc(C(=O)N[C@H](CO)CF)cc(-c3ccc(OC(F)(F)F)cc3)n2)cn1 [Example 95, N-[(2R)-1-fluoro-3-hydroxypropan-2-yl]-2-(1-methyl-1H-pyrazol-4-yl)-6-[4-(trifluoromethoxy)phenyl]pyrimidine-4-carboxamide]
6 | 8.24 | 8.17 | Cn1cc(-c2nc(C(=O)N[C@H]3COC[C@H]3O)cc(-c3ccc(OC(F)(F)F)cc3)n2)cn1 [Example 103, N-[(3S,4S)-4-hydroxytetrahydrofuran-3-yl]-2-(1-methyl-1H-pyrazol-4-yl)-6-[4-(trifluoromethoxy)phenyl]pyrimidine-4-carboxamide]
7 | 7.69 | 7.90 | CC(NC(=O)c1cc(-c2ccc(OC(F)(F)F)cc2)nc(-c2cnn(C)c2)n1)C(O)CO (stereo not drawn) [Example 104, N-(3,4-dihydroxybutan-2-yl)-2-(1-methyl-1H-pyrazol-4-yl)-6-[4-(trifluoromethoxy)phenyl]pyrimidine-4-carboxamide]
8 | 8.17 | 8.54 | C[C@H](NC(=O)c1cc(-c2ccc(C(F)F)cc2)nc(-c2cccnc2)n1)C(C)(C)O [Example 119, 6-[4-(difluoromethyl)phenyl]-N-[(2S)-3-hydroxy-3-methylbutan-2-yl]-2-(pyridin-3-yl)pyrimidine-4-carboxamide]

Second part, the compound before the results:

Row | Structure (SMILES) | pIC50 [1] | pIC50 [2]
9 | C[C@@H](CO)NC(=O)c1cc(-c2ccc(Cl)cc2)nc(-c2cnn(C3CC3)c2)n1 [Example 85, 6-(4-chlorophenyl)-2-(1-cyclopropyl-1H-pyrazol-4-yl)-N-[(2S)-1-hydroxypropan-2-yl]pyrimidine-4-carboxamide] | 5.13 | 5.92
10 | Cn1cc(-c2nc(C(=O)N[C@H](CO)C3CC3)cc(-c3ccc(OC(F)(F)F)cc3)n2)cn1 [Example 99, N-[(1S)-1-cyclopropyl-2-hydroxyethyl]-2-(1-methyl-1H-pyrazol-4-yl)-6-[4-(trifluoromethoxy)phenyl]pyrimidine-4-carboxamide] | 7.67 | 7.75
11 | Cn1cc(-c2nc(C(=O)N[C@@H](C#N)CO)cc(-c3ccc(OC(F)(F)F)cc3)n2)cn1 [Example 101, N-[(1S)-1-cyano-2-hydroxyethyl]-2-(1-methyl-1H-pyrazol-4-yl)-6-[4-(trifluoromethoxy)phenyl]pyrimidine-4-carboxamide] | 7.72 | 7.65
12 | C[C@H](NC(=O)c1cc(-c2ccc(OC(F)(F)F)cc2)nc(-c2cnn(C)c2)n1)C(C)(C)O [Example 102, N-[(2S)-3-hydroxy-3-methylbutan-2-yl]-2-(1-methyl-1H-pyrazol-4-yl)-6-[4-(trifluoromethoxy)phenyl]pyrimidine-4-carboxamide] | 8.49 | 8.16
13 | Cn1cc(-c2nc(C(=O)NC3CCCC(F)(F)C3O)cc(-c3ccc(OC(F)(F)F)cc3)n2)cn1 (stereo not drawn) [Example 106, N-(3,3-difluoro-2-hydroxycyclohexyl)-2-(1-methyl-1H-pyrazol-4-yl)-6-[4-(trifluoromethoxy)phenyl]pyrimidine-4-carboxamide] | 7.70 | 8.14
14 | C[C@@H](CO)NC(=O)c1cc(-c2ccc(C(F)(F)F)cc2)nc(-c2cccnc2)n1 [Example 117, N-[(2S)-1-hydroxypropan-2-yl]-2-(pyridin-3-yl)-6-[4-(trifluoromethyl)phenyl]pyrimidine-4-carboxamide] | 8.88 | 8.90
15 | O=C(N[C@H]1COC[C@@H]1O)c1cc(-c2ccc(OC(F)(F)F)cc2)nc(-c2cccnc2)n1 [Example 118, N-[(3S,4R)-4-hydroxyoxolan-3-yl]-2-(pyridin-3-yl)-6-[4-(trifluoromethoxy)phenyl]pyrimidine-4-carboxamide] | 8.47 | 8.63
